Here are results for nine compounds from ChEMBL document CHEMBL3588800, “Novel Bioactive Hybrid Compound Dual Targeting Estrogen Receptor and Histone Deacetylase for the Treatment of Breast Cancer” (J Med Chem, 2015).

Series [1] deals with T1, Estrogen receptor (Homo sapiens, UniProt P03372).
T1 sequence (P03372 whole entry): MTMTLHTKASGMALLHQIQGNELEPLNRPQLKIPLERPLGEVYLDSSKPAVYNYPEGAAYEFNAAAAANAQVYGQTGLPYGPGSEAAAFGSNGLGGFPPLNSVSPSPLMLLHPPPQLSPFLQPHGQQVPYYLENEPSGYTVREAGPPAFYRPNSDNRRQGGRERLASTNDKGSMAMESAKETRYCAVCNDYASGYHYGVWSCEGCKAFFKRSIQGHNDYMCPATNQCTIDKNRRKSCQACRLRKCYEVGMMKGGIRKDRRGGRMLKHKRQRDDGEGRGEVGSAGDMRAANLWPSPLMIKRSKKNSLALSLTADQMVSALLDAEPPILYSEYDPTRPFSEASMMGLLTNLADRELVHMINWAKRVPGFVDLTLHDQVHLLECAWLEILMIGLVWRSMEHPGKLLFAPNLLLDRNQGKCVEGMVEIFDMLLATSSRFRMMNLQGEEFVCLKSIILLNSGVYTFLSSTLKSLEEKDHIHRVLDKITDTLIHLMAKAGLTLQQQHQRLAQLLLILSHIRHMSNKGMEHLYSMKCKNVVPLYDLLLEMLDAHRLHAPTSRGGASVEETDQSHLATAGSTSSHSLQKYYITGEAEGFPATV
Kind of series: Binding affinity to human ER-alpha ligand binding domain after 2 hrs by competitive fluorometric binding assay.

In series [2] the target is T2, Estrogen receptor beta (Homo sapiens, UniProt Q92731). Kind of series: Binding affinity to human ER-beta ligand binding domain after 2 hrs by competitive fluorometric binding assay.
T2 sequence (Q92731 whole entry, the tested form may be a part): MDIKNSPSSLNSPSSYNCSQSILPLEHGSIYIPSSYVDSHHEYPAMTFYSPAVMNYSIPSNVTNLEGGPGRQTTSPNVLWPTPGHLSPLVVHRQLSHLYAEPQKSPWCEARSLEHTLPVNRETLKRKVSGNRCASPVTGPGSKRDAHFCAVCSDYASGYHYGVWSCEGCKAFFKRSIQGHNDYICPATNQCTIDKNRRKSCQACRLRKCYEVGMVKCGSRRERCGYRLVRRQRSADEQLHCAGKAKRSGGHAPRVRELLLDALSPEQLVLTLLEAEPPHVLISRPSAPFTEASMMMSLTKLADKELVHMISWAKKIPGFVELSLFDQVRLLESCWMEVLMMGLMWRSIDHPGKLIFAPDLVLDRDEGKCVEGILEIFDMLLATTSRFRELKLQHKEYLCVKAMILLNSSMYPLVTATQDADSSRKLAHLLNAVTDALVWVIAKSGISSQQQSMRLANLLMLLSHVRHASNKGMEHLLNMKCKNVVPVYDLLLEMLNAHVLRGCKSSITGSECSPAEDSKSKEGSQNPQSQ
Series [3] addresses T3, Estrogen receptor (Homo sapiens) (UniProt P03372).
T3 sequence (whole entry): T1 sequence (P03372 whole entry)
Description: Agonist activity at ER-alpha (unknown origin) transfected in HEK293T cells assessed as stimulation of transcriptional activity after 24 hrs by luciferase reporter gene assay relative to 17-beta estradiol. It counts as cell-based. The following applies: HEK-293T. (In general: In a reporter assay the amount or activity of a reporter protein is the signal.)

Series [4] concerns the target T2, Estrogen receptor beta. Kind of series: Agonist activity at ER-beta (unknown origin) transfected in HEK293T cells assessed as stimulation of transcriptional activity after 24 hrs by luciferase reporter gene assay relative to 17-beta estradiol. It counts as cell-based. The following applies: HEK-293T.
Series [5] addresses T1, Estrogen receptor. Description: Antagonist activity at ER-alpha (unknown origin) transfected in HEK293T cells assessed as inhibition of transcriptional activity after 24 hrs by luciferase reporter gene assay. It counts as cell-based, HEK-293T.
In series [6] the target is T3, Estrogen receptor (Homo sapiens). Kind of series: Antagonist activity at ER-alpha (unknown origin) transfected in HEK293T cells assessed as inhibition of transcriptional activity after 24 hrs by luciferase reporter gene assay relative to 17-beta estradiol. It is filed as cell-based. To be noted: HEK-293T.
Series [7] has as its target T2, Estrogen receptor beta. Kind of series: Antagonist activity at ER-beta (unknown origin) transfected in HEK293T cells assessed as inhibition of transcriptional activity after 24 hrs by luciferase reporter gene assay. It counts as cell-based, HEK-293T.
Series [8] addresses T2, Estrogen receptor beta. Description: Antagonist activity at ER-beta (unknown origin) transfected in HEK293T cells assessed as inhibition of transcriptional activity after 24 hrs by luciferase reporter gene assay relative to 17-beta estradiol. It counts as cell-based. The following applies: HEK-293T.
The test system of series [9] is MCF7. Description: cells. It counts as functional, cell-based. The following applies: Homo sapiens, MCF7, 72 h.
The test system of series [10] is DU-145. Description: cells. To be noted: Homo sapiens, DU-145, 72 h. It counts as functional, cell-based.
Series [11] concerns Vero. Kind of series: cells. It is filed as ADME, cell-based. The following applies: Chlorocebus sabaeus, 72 h.
The target of series [12] is T1, Estrogen receptor. Description: Agonist activity at ER-alpha (unknown origin) transfected in HEK293T cells assessed as stimulation of transcriptional activity after 24 hrs by luciferase reporter gene assay. It counts as cell-based, HEK-293T.
Series [13] concerns the target T2, Estrogen receptor beta. Kind of series: Agonist activity at ER-beta (unknown origin) transfected in HEK293T cells assessed as stimulation of transcriptional activity after 24 hrs by luciferase reporter gene assay. It counts as cell-based, HEK-293T.
Series [14] concerns the target Histone deacetylase 1 (Homo sapiens, UniProt Q13547). Kind of series: Inhibition of human recombinant HDAC1 after 15 mins by fluorogenic assay. The following applies: read-out: IC50.
A short description of series [15]: Therapeutic index, ratio of IC50 for african green monkey Vero cells to IC50 for human MCF7 cells.
Series [16] has as its target T4, Protein deacetylase HDAC6 (Homo sapiens, UniProt Q9UBN7).
T4 sequence (Q9UBN7 whole entry): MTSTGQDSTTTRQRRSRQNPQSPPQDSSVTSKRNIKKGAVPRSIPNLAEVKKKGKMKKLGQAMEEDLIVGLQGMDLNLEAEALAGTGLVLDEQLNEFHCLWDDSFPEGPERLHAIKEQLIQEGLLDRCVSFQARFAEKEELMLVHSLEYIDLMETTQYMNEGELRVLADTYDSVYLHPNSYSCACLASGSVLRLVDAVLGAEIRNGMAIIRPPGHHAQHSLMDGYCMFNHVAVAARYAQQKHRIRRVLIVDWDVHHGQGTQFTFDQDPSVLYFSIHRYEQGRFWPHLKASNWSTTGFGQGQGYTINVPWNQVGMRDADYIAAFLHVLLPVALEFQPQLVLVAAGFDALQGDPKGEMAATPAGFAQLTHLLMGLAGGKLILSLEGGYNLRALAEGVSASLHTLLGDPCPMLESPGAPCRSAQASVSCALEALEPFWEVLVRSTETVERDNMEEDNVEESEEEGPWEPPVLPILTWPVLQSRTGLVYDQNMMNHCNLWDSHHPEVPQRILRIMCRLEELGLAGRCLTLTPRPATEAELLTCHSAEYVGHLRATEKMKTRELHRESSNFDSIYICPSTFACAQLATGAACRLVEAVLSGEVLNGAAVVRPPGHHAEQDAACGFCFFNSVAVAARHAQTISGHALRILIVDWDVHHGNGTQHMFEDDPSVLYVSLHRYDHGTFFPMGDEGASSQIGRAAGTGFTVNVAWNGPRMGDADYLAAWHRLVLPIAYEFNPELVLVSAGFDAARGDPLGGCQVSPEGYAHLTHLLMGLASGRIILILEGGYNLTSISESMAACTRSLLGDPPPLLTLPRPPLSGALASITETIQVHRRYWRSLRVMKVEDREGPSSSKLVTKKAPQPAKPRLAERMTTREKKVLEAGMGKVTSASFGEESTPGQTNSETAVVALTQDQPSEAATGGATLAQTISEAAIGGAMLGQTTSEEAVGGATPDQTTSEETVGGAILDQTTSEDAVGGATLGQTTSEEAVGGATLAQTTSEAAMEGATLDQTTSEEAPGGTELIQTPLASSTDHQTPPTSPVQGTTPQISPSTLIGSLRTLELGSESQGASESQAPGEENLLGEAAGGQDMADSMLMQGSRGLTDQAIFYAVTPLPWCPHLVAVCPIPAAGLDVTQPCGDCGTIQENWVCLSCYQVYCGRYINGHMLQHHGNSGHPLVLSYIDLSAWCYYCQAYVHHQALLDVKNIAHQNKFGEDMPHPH
Description: Inhibition of human recombinant HDAC6 after 15 mins by fluorogenic assay. To be noted: read-out: IC50.

Histone deacetylase 1, sequence (Q13547 whole entry): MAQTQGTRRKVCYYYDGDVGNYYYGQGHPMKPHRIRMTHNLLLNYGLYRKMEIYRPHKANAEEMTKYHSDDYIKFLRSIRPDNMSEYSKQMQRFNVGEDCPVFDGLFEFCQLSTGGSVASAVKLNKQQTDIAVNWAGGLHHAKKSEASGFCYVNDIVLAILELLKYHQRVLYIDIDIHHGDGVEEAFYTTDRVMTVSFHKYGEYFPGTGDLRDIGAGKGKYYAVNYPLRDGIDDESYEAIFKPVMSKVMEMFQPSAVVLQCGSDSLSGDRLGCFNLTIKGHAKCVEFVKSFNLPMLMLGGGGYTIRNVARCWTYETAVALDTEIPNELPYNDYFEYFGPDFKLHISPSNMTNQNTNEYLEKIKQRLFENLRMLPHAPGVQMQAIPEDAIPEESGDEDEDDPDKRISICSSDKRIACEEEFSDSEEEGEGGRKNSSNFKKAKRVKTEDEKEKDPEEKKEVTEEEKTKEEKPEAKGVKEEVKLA

As to `O=C(O)CCCCCCC(=O)Nc1ccc(C2=C(c3ccc(O)cc3)C3CC(S(=O)(=O)Oc4ccc(Br)cc4)C2O3)cc1` (racemic), the inhibitory constant (Ki) in series [1] came to 126 nM; in series [2] it was 60.5 nM. In addition, the Efficacy in [3] was -36%; in series [4], -3%; in [6] it was 75%; in series [8], 77%. Further, the half-inhibitory concentration (IC50) in series [5] was 1700 nM; in series [7], 250 nM; in series [9], above 100000 nM; in series [10], above 100000 nM; in series [11], above 100000 nM.
On to `COc1ccccc1OS(=O)(=O)C1CC2OC1C(c1ccc(NC(=O)CCCCCCC(=O)O)cc1)=C2c1ccc(O)cc1` (racemic), for which the inhibition constant (Ki) is 159 nM in [1] and 95.2 nM in series [2]. The 50% effective concentration (EC50) was 16 nM in [12] and 1800 nM in series [13]. The Efficacy came to 84% in [3], 65% in series [4], 104% in series [6] and 78% in [8]. Also, the IC50 was 290 nM in [7], above 100000 nM in series [9], above 100000 nM in series [10] and above 100000 nM in series [11].
For `O=C(O)CCCCCCC(=O)Nc1ccc(C2=C(c3ccc(O)cc3)C3CC(S(=O)(=O)Oc4ccc(F)cc4)C2O3)cc1` (racemic), in series [12], the concentration giving a half-maximal response (EC50) amounted to 18000 nM. Further, the Efficacy in series [3] is 38%; in series [4] it was -13%; in series [6] it was 99%; in series [8], 85%. For the same compound, the IC50 was 280 nM in series [7], 24800 nM in [9], above 100000 nM in [10] and above 100000 nM in series [11].
As for `COC(=O)CCCCCCC(=O)Nc1ccc(OS(=O)(=O)C2CC3OC2C(c2ccc(O)cc2)=C3c2ccc(O)cc2)cc1` (stereo not drawn), the IC50 in [14] was 534 nM; in series [5] it was 10800 nM; in series [7] it was 330 nM; in series [9] it was 8100 nM; in [10], 20400 nM; in series [11] it was above 100000 nM. Also, the IC50 in series [16] came out at 1580 nM. Further, the results for the Ki in [1] and in series [2] were 59.9 nM and 756 nM, respectively. Besides, the Efficacy in [3] is -35%; in series [4] it was 4%; in series [6], 10%; in [8], 76%. Moreover, the selectivity ratio in [15] is above 12.3.
Regarding `O=C(CCCCCCC(=O)Nc1ccc(C2=C(c3ccc(O)cc3)C3CC(S(=O)(=O)Oc4ccc5ccccc5c4)C2O3)cc1)NO` (stereo not drawn), the half-maximal inhibitory concentration (IC50) in [14] was 349 nM; in series [5], 160 nM; in series [7] it was 7700 nM; in series [9], 32200 nM; in series [10] it was 12400 nM; in series [11], above 100000 nM. In series [16], the IC50 was 322 nM. Further, the results for the Ki in series [1] and in series [2] were 307 nM and 102 nM, respectively. For the same compound, the Efficacy was 13% in [3], -17% in series [4], -26% in [6] and 19% in series [8].
Turning to `O=C(O)CCCCCCC(=O)Nc1ccc(OS(=O)(=O)C2CC3OC2C(c2ccc(O)cc2)=C3c2ccc(O)cc2)cc1` (stereo not drawn), the half-inhibitory concentration (IC50) was 107 nM in series [14]; 50 nM in series [5]; 160 nM in series [7]; 19100 nM in series [9]; 34800 nM in series [10]; above 100000 nM in [11]. In addition, the IC50 in series [16] is 8340 nM. The Efficacy in series [3] was -10%; in series [4], -5%; in series [6] it was 25%; in series [8], 89%.
Regarding `O=C(O)CCCCCCC(=O)Nc1ccc(C2=C(c3ccc(O)cc3)C3CC(S(=O)(=O)Oc4ccc(O)cc4)C2O3)cc1` (racemic), the inhibition constant (Ki) came out at 133 nM in series [1] and 39 nM in [2]. Moreover, the EC50 was found to be 2420 nM in [12] and 13400 nM in [13]. For the same compound, the Efficacy stood at 79% in series [3], 69% in series [4], 99% in series [6] and 23% in [8]. Moreover, the IC50 in series [7] is 11700 nM; in series [9], above 100000 nM; in [10], above 100000 nM; in series [11], above 100000 nM.
As to `COc1cccc(OS(=O)(=O)C2CC3OC2C(c2ccc(NC(=O)CCCCCCC(=O)O)cc2)=C3c2ccc(O)cc2)c1` (racemic), the Ki in [1] amounted to 4430 nM; in series [2] it was 81.5 nM. In addition, the values for the concentration for a half-maximal effect (EC50) in [12] and in [13] were 1160 nM and 1100 nM, respectively. Also, the Efficacy in series [3] came to 67%; in series [4], 100%; in [6], 87%; in series [8], 100%. The figures for the IC50 in [9], in [10] and in series [11] were 17900 nM, 53800 nM and above 100000 nM, respectively. Further, the selectivity ratio in series [15] is above 5.59.
For `O=C(O)CCCCCCC(=O)Nc1ccc(C2=C(c3ccc(O)cc3)C3CC(S(=O)(=O)Oc4ccc(Cl)cc4)C2O3)cc1` (racemic), the IC50 in series [14] is 241 nM; in [9], 3300 nM; in series [10], above 100000 nM; in [11] it was above 100000 nM; in [16] it was 1460 nM. Besides, the inhibitory constant (Ki) was determined as 126 nM in series [1] and 200 nM in series [2]. The concentration for a half-maximal effect (EC50) in [12] came out at 790 nM; in series [13], 580 nM. For the same compound, the Efficacy in [3] was determined as 149%; in [4], 44%; in [6], 93%; in [8], 188%. Moreover, the selectivity ratio in series [15] is above 30.3.

One may read the Ki as a measure of affinity in units of concentration, obtained from inhibition or displacement. A word on the IC50: it is the concentration at which inhibition is half-maximal. A word on the EC50: it is the midpoint of the concentration-response curve.
